Each block holds one compound with its values, some of them ahead of it.
What was measured:
[1] = tested on: proinsulin complex formation; assay: Inhibition of ER to Golgi trafficking: proinsulin disulfide linked HMW complex formation; type: cell-based; conditions: BFA treatment; with or without cycloheximide
Procedure: Also, it is contemplated that increased proinsulin synthesis predisposes to oligomer and HMW complex formation. To test the notion that increased proinsulin expression, as in T2D, may exacerbate abnormal disulfide formation, the effect of brefeldin A (BFA), which promotes retrograde COP1 trafficking from the cis-Golgi to the ER to prevent export of secretory proteins to the Golgi, and thus increasing their concentration in the ER, was tested.

[2] = tested on: mouse pancreatic islets; assay: Proinsulin disulfide-linked / HMW complexes in murine islets, SDS-PAGE immunoblot (CCI-17); type: cell-based
Procedure: Mouse pancreatic islet isolation: Mice were euthanized by CO2 narcosis as per an approved institutional animal protocol. The pancreas was rapidly excised, minced in ice-cold PBS, and digested in 4 mL of Collagenase P (Roche) 1.5 mg/mL in Hank's Balanced Salt Solution containing calcium and magnesium, in a shaking water bath for 30 min at 37° C. The digestion was terminated in 40 mL ice-cold PBS (—Ca/—Mg) and the digested tissue washed twice in this buffer. The sedimented tissue digest was then overlaid with 3 mL Histopaque-1077 and further overlayed with 6 mL ice cold PBS (—Ca/—Mg) before centrifugation (3000 rpm for 20 min at 10° C. with no brake) and transfer of the midlayer of the Histopaque gradient to a 15 ml tube for two further washes in ice-cold PBS. Finally, the sedimented tissue was transferred to a petri dish in ice-cold RPMI-1640 buffer and islets hand-picked to purity. In experiments involving drug or compound treatment, the islets were finally recovered overnight in RPMI-1640 supplemented with 10% fetal bovine serum (FBS), 10 mM HEPES pH 7.35, 1 mM sodium pyruvate and 0.05 mM beta-mercaptoethanol, in a humidified 5% CO2 incubator at 37° C. For some experiments, islets were snap frozen in liquid nitrogen and stored frozen prior to analysis.
(§1) Lysis of cells or islets for SDS-PAGE and electrotransfer: After removal of media, cells were washed once with ice-cold PBS and lysed in RIPA buffer (10 mM Tris pH 7.4, 150 mM NaCl, 0.1% SDS, 1% NP40, 2 mM EDTA) plus protease inhibitor/phosphatase inhibitor cocktail (Sigma-Aldrich) or directly in Laemmli gel sample buffer. Lysates in RIPA buffer were immediately spun at 10,000 rpm for 10 min at 4° C. and the supernatants analyzed further or stored at −80° C. Islets that had been quick frozen were placed on ice and RIPA buffer containing protease inhibitor cocktail and phosphatase inhibitor was added. Lysis was carried out by gently pipetting or by syringe through a 30G needle. Total protein concentration in the lysate was determined by BCA or Bramhall assay, and 5-10 μg of samples prepared in SDS sample were resolved by SDS-PAGE in 4-12% Bis-Tris NuPAGE gels (Invitrogen) at 200 V for 30 min. Nonreducing gels were incubated in a solution containing 20 mM dithiothreitol (DTT) for 10 min at room temperature prior to electrotransfer.
(§2) Immunoblotting: Transfer membranes were rinsed once in TBST (15 mM Tris, 150 mM NaCl, 0.1% Tween-20), blocked using TST plus 5% BSA for 1 h at room temperature, and then washed four times (5 min each) in TBST. Primary antibody and secondary antibodies were diluted in TBST and each of […] incubations was 1 h at room temperature followed by 4 washes in TBST. On occasion, primary antibodies were incubated overnight at 4° C. Secondary antibodies were all HRP-conjugates. Development of immunoblots used enhanced chemiluminescence (Immobilon, Millipore, or SuperSignal West Pico PLUS, Thermo Fisher Scientific) with images captured using a Fotodyne gel imager.
Islet Isolation: Islets were isolated by collagenase P (Roche) perfusion as described following by histopaque-1077 (Sigma-Aldrich, Inc. St. Louis) gradient purification. Islets were handpicked and studied directly or after overnight culture in RPMI 1640 medium (Corning 10-040-CV) supplemented with 10% FBS, 1% penicillin/streptomycin, 100 μg/m1 primocin, 10mM Hepes, and 1mM sodium pyruvate.
Islet Western Blotting: Isolated islets were lysed in RIPA buffer (10 mM Tris pH 7.4, 150 mM NaCl, 0.1% SDS, 1% NP-40, 2mM EDTA) with protease and phosphatase inhibitors (Fisher Scientific) on ice for 10 min and lysates were collected after centrifugation at 4° C. for 10 min at 12000 g. Samples were prepared in Laemmli sample buffer without (non-reducing) or with (reducing) 5% β-mercaptoethanol. After boiling for 5 min, samples were analyzed by SDS-PAGE (4-12% Bis-Tris gel, (Bio-Rad Laboratories, Inc.)) and transferred to nitrocellulose membranes (Bio-Rad Laboratories, Inc.). […]

[3] = tested on: INS1E cells; assay: Proinsulin disulfide-linked complexes in INS1E cells, nonreducing/reducing SDS-PAGE and immunoblotting (mAb CCI-17); type: cell-based, rat; conditions: INS1E cells
Procedure: HEK293T human cells lines were cultured in DMEM supplemented with 10% FBS and penicillin/streptomycin.
as §1, with “Islets that had been quick frozen were placed on ice and RIPA buffer containing protease inhibitor cocktail and phosphatase inhibitor was added.” left out, “Total protein concentration in the lysate was determined by BCA or Bramhall assay, and 5-10 μg of samples prepared in SDS sample were resolved by SDS-PAGE in 4-12% Bis-Tris NuPAGE gels (Invitrogen) at 200 V for 30 min.” left out
The lane was then laid horizontally on top of a 10% SDS-polyacrylamide resolving gel and sealed in place in stacking gel. A single-tooth comb was introduced at one end of the stacking gel to introduce a one-dimensional reduced sample of proinsulin containing cell lysate (which runs as proinsulin monomer). The gel was run at 200 V for 45 mins in Tris-Glycine buffer pH 8.8 with electrotransfer as described above.
as §2

[4] = tested on: islets; assay: Analysis of oxidative stress in islets (CellROX Deep Red, Hoechst 33342); type: cell-based, mouse; conditions: islets after 30 wks HFD, menadione 10 μM, 3 h
Procedure: Analysis of Oxidative Stress: Islets were plated onto CellCarrier™-96 ultra microplates (Perkin Elmer) in phenol red-free RPMI 1640 medium supplemented with 10% FBS, 1% penicillin/streptomycin, 100 μg/ml primocin, 10mM Hepes, and 1 mM sodium pyruvate one day prior to staining. Islets were treated with menadione (AdipoGen Life Science, 10 μM) for 3 h at 37° C. Islets were stained with CellROX® Deep Red reagent (Molecular Probes, C10422, 100 μM) and Hoechst 33342 (Invitrogen, 10 μg/ml) for 1 h at the same time. Islets were washed three times with HBSS and incubated in HBSS for imaging while temperature and CO2 were controlled. […]
Because ER stress is linked with oxidative stress, the inventors tested whether Pdia1 deletion confers increased sensitivity to oxidants by treating islets (isolated after 30 wks of HFD) with the vitamin K analogue menadione, which can render cells susceptible to apoptosis by increasing cytosolic calcium with nuclear condensation. […] In FIG. 21B, quantification of ROS mean intensity is shown. CellROX Deep Red mean intensity (divided by area) was measured by image J software. […] In FIG. 21C, quantification of nuclear mean area (μm^2) measured in Hoechst 33342 stained images by ImageJ software is shown. […] Quantification of the ratio of HMW proinsulin complexes (a) to monomeric proinsulin under reducing conditions is shown in graph (lower). […]

[5] = islets, NEM treatment to alkylate free sulfhydryls

SMILES: C[C@H]1CCC/C=C/[C@@H]2C[C@H](O)C[C@H]2[C@H](O)/C=C/C(=O)O1 [BFA, brefeldin A]
proinsulin complex formation [1]: significantly increased proinsulin complex formation

SMILES: C#CCNc1nc(NCCNC(=O)CCl)nc(N(C)CCCCc2ccccc2)n1 [KSC-34]
HMW proinsulin complexes, combination with menadione ([2]; WT murine islets, KSC-34 3 h then menadione 100 μM 1 h): recapitulated the effect of Pdia1 deletion upon menadione treatment
HMW proinsulin complexes ([2]; WT murine islets, KSC-34 alone, 3 h): slightly increased HMW complexes

SMILES: CCN1C(=O)C=CC1=O [N-ethylmaleimide]
HMW proinsulin-containing complexes [2, 5]: slightly increased the HMW proinsulin-containing complexes
disulfide-linked proinsulin oligomers [2, 5]: slightly reduced the disulfide-linked oligomers

SMILES: CC(C)NCCCn1c(Sc2cc(Cl)cc(Cl)c2)nc2c(N)ncnc21 [PU-WS13]
proinsulin disulfide-linked complex formation triggered by acute loss of BiP ([3]; PU-WS13 20 μM 24 h, SubAB during last 3 h): did not exacerbate the proinsulin disulfide-linked complex formation
proinsulin disulfide-linked complex formation ([3]; PU-WS13 20 μM, 24 h): did not promote proinsulin disulfide-linked complex formation

SMILES: C[C@@H]1C[C@@H]([C@H](O)CC2CC(=O)NC(=O)C2)C(=O)[C@@H](C)C1 [cycloheximide]
proinsulin complex formation [1]: did not significantly affect the results

nuclear size (Hoechst 33342) [4]: promoted nuclear condensation
SMILES: CC1=CC(=O)c2ccccc2C1=O [menadione]
HMW proinsulin complexes (49-198 kDa), increase by Pdia1 deletion vs WT islets ([2]; islets after 37 wks HFD, menadione 100 μM, 1 h): this effect was even greater in islets treated with menadione
ROS (CellROX Deep Red stain) [4]: significantly increased ROS
